Laboratory results reported in patent US20250288570A1, “TREATMENT OF NEUROLOGICAL DISORDERS” (Praxis Precision Medicines, Inc., priority 2022, published 2025).

Columns and labels:
[1] = Phase 1 clinical trial, single ascending dose (Part A), healthy volunteers; format: in vivo, human
Description: This is a trial to assess the safety, tolerability, pharmacokinetics (PK), and pharmacodynamics (PD) of Compound 1 in healthy participants aged 18 to 55 years (inclusive). The trial is initially comprised of 2 parts, with 1 additional optional part, as follows: • Part A is randomized, double-blinded, and placebo-controlled. Part A is designed to investigate the safety, PK, and PD of single ascending doses of Compound 1. • Part B is randomized, double-blinded, and placebo-controlled. Part B is designed to investigate the safety, PK, and PD of multiple ascending doses (selected based on the results from Part A) of Compound 1. • Part C (optional) is a randomized, open-label, crossover design food effect evaluation to investigate the PK of a single dose (selected based on the results from Part A) of Compound 1 in the fasted and fed state.
Safety and tolerability assessments for Parts A, B, and C will include vital signs, 12-lead ECGs, physical examinations, clinical laboratory tests, and the C-SSRS (for Part B).
Healthy participants will be enrolled to receive single ascending oral doses of Compound 1 or placebo on Day 1. FIG. 14A is an illustration of the dosing scheme for Part A (single ascending dose) of the trial. Dose escalation in Part A will initially be conducted in up to a total of 4 planned cohorts (Cohorts A1 to A4). Following completion of Cohort A4, up to an additional 3 escalation cohorts may be added. […] Doses may be adjusted upward or downward based on safety, tolerability, and PK data from the preceding cohorts. Cohorts after A4 will be numbered sequentially (A5, A6, etc.). […]
Compound 1 will be administered to Cohort A1 participants at the starting dose of 5 mg. […] The safety and tolerability of each sentinel participant will be monitored until Day 2 and will be reviewed prior to dosing the remainder of participants in the cohort. […]
Cohorts will be dosed in an escalating order. […] If the current dose level is determined to be safe and tolerated by the SRC, the next dose cohort will be randomized to receive the selected dose of active Compound 1 or placebo. […]

[2] = tested on: scPTZ-induced seizures in CD-1 mice; assay: Subcutaneous pentylenetetrazole (scPTZ) induced seizure test; format: in vivo, mouse
Method: The subcutaneous pentylenetetrazole (scPTZ) test is a validated model for evaluating the anti-seizure potential of compounds. The positive control valproate is an approved anti-seizure medicine (ASM). This study evaluated the efficacy of Compound 1 to attenuate scPTZ-induced seizures in wildtype CD-1 mice. Doses of Compound 1 used were 1 mg/kg, 3 mg/kg, 6 mg/kg and 10 mg/kg administered orally. Valproate (600 mg/kg, administered intraperitoneally) was used as a positive control as it has a broad spectrum of anticonvulsant activity.
Male CD-1 mice (Charles River Laboratories, St. Constant, Quebec, Canada) were used for the study. Body weights at the time the experiment was carried out were between 27 and 39 grams. The mice were group-housed in polycarbonate cages according to standard operating procedures. Animals were maintained on a 12 hour light/12 hour dark cycle, with all experimental activities occurring during the light phase. Food and water were available ad libitum. […]
Immediately prior to the administration of PTZ, a brief neurological assessment was performed. Each animal was visually assessed and received a score from 0 to 3 according to the following scoring system: neurological score of 0 corresponds to a normal status; neurological score of 1 corresponds to a modest decrease in spontaneous activity; neurological score of 2 corresponds to a marked decrease in spontaneous activity; and neurological score of 3 corresponds to loss of righting reflex.
PTZ (85 mg/kg, 10 mL/kg) was administered as a subcutaneous (s.c.) injection. […] The latency to generalized clonic seizure was recorded. Seizures were also scored using a seizure scale. Mice were scored with the following stages: 0) no seizure activity, 1) myoclonic jerks with “flat body posture”, 2) generalized clonus with loss of posture lasting ˜2 s, 3) generalized clonus with loss of posture lasting ˜10 s or 4) tonic hindlimb extension. Seizure scores were used as a qualitative measure to assess seizure incidence and were not used as a quantitative measure of pharmacological activity. […]

In the case of `CCOC(F)(F)c1nnc2ccc(-c3cnc(OCC(F)(F)F)c(F)c3)cn12` [Compound 1], the “safety and tolerability (in words)” value ([1]; healthy participants, single oral doses up to 45 mg) was “safe and generally well tolerated”, the “most frequently reported TEAEs” value ([1]; single doses up to 45 mg) was “headache and fatigue” and the “severity of treatment-emergent adverse events” value ([1]; single doses up to 45 mg) was “mild in severity”. For the same compound, the “spontaneous activity (in words)” value ([2]; 10 mg/kg) was “modest reduction in spontaneous activity was observed in a single mouse”, the “protection in PTZ acute seizure model (in words)” value ([2]; 1-10 mg/kg p.o.) was “protected from generalized clonus” and the “neurological scores (in words)” value ([2]; dose range tested) was “Neurological scores for all but one mouse treated with Compound 1 were normal”.
